Laboratory results taken from patent US20220177477A1 (Central China Normal University, priority 2019, published 2022).
One block for each molecule: values may come before it.

Legend:
TRKA = target: T1, TRKA (Homo sapiens, UniProt P04629); experiment: In vitro biochemical HTRF KinEASE kinase inhibition, TRKA; settings: wild-type kinase, final ATP 3.727 μmol/L; read-out: TRKA IC50
T1 construct: purchased Carna Biosciences 08-186

TRKB = target: T2, TRKB (Homo sapiens, UniProt Q16620); experiment: In vitro biochemical HTRF KinEASE kinase inhibition, TRKB; settings: wild-type kinase, final ATP 2.56 μmol/L
T2 construct: purchased Carna Biosciences 08-187
T2 sequence (Q16620 32-822): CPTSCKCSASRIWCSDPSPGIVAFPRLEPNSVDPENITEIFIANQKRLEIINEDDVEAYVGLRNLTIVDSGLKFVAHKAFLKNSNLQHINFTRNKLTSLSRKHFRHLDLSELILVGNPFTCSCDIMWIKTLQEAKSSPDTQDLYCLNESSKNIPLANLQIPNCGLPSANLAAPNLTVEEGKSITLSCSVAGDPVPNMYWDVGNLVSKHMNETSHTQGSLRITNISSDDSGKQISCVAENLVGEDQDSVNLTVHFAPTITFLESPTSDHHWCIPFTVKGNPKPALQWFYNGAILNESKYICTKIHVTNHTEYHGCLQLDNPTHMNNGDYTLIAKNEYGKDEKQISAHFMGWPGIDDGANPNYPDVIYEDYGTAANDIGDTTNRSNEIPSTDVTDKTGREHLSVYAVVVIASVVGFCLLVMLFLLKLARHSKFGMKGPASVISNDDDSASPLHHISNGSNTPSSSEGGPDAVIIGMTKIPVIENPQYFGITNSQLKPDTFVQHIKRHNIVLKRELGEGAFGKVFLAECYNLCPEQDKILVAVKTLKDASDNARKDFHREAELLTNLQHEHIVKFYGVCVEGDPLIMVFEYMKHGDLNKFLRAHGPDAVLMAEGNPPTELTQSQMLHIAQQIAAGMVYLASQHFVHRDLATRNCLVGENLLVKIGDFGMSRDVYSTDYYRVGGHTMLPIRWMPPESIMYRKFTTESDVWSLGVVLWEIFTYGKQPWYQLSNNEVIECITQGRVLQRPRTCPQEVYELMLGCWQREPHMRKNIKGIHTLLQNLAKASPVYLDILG
Method: The material and the method are as follows: wild-type kinases such as TRKA, TRKB and TRKC, and mutant kinases such as TRKA-G595R, TRKA-G667C, TRKA-F589L, TRKC-G623R and TRKC-G696A, and are derived from Carna Biosciences 08-186, 08-187, 08-197; HTRF KinEASE TKkit (Cisbio 62TKO PEC); 384 well plates (Greiner corporation); ATP (Life technologies PV 3227), MgCl2 (sigma); PHERAstar FS Multifunctional microplate reader (BMG Co.); low speed centrifuge (StaiteXiangyi corporation); incubator (Binder company).
Preparing a compound working solution: the dispensed compounds were removed from the freezer prior to testing and diluted to 100× concentration with pure DMSO; then the compound was diluted to the desired concentration of 4× with deionized water;
Preparation of 1.33× enzyme buffer (enzyme buffer): 5× enzyme buffer (from HTRF kit) was diluted to 1.33× with deionized water and the corresponding ingredients were added at a final concentration of 1.33×: 1.33 mmol/L Dithiothreitol (DTT), 1.33 mmol/L MnCl2, 6.65 mmol/L MgCl2 and 39.9 nmol/L SEB;
Preparation of a kinase working solution: TRKA, TRKB and TRKC were diluted with 1.33× enzyme buffer to the required concentrations of 2× of 0.404 ng/μL, 0.304 ng/μL and 0.236 ng/μL, respectively;
Preparing a substrate working solution: a mixture of TK Substrate Blr diluted to the desired final concentration of 4× (from HTRF kit) and ATP (10 mM) with 1.33× enzyme buffer; the final ATP concentrations for TRKA, TRKB, and TRKC were: 3.727 μmol/L, 2.56 μmol/L and 2.526 μmol/L. The TK Substrate-biotin (from HTRF KinEASE TKkit) final concentrations were all: 0.2 μmol/L.
Preparing a detection working solution: 16.67 μmol/L of Streptavidin-XL665 (Streptavidin-XL 665) were diluted to the desired final concentration of 4× with HTRF test buffer and then mixed with an equal volume of Antibody-europium Cryptate (Antibody-Cryptate) (both from HTRF kits).
An enzyme reaction step: add 4 μL of kinase working solution to each well of a low volume 384 microwell plate along with 4 μL of 1.33× enzyme buffer as a Negative control (Negative); add 2 μl of compound working solution to the wells, while adding 2 μl of […] aqueous solution as a zero compound concentration control (i.e., Positive control, Positive); incubating at 25° C. for 5 min; add 2 μL of substrate working solution to the wells to start the enzymatic reaction, shake the reaction for 30 min at 37° C.
HTRF reagent detection step: adding […] to the hole to terminate the reaction; reacting for 1 h at 25° C.;
Reading of HTRF signal: the PHERAstar FS reading is adopted to detect signals, and the corresponding setting of the instrument is as follows:
For the raw data read out per well, the ratio=665 nm/620 nm;
Calculation of inhibition rate:
Calculation of IC50 values: with the logarithm of the compound concentration as abscissa and the inhibition as ordinate, a non-linear curve was fitted in GraphPad Prism 5: log (inhibitor) vs. response—Variable slope, and calculating the concentration of the compound to be detected, namely IC50, when the enzyme activity inhibition rate is 50%.

TRKC = target: T3, TRKC (Homo sapiens, UniProt Q16288); experiment: In vitro biochemical HTRF KinEASE kinase inhibition, TRKC; settings: wild-type kinase, final ATP 2.526 μmol/L
T3 construct: purchased Carna Biosciences 08-197
T3 sequence (Q16288 32-825 isoform Q16288-3 limits assumed): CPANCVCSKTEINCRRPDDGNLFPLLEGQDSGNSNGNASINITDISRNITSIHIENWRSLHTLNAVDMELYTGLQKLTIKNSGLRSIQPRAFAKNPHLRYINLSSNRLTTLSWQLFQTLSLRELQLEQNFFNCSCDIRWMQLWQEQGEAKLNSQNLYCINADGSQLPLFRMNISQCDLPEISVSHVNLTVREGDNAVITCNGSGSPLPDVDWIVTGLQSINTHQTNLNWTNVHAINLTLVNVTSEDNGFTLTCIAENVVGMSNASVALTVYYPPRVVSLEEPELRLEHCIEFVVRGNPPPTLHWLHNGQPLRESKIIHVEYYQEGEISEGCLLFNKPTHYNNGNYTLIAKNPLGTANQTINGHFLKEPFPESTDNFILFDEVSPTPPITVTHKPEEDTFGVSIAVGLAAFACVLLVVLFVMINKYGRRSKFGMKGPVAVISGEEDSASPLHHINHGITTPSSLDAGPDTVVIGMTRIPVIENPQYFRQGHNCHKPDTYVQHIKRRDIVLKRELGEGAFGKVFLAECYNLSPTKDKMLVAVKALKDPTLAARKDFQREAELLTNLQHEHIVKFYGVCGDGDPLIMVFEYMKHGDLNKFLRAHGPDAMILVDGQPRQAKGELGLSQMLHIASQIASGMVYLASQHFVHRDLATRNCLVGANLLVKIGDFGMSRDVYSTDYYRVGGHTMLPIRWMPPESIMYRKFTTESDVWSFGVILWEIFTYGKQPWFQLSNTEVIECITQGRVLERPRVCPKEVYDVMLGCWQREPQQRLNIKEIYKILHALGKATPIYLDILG

TRKA-G595R = target: T4, TRKA-G595R (Homo sapiens, UniProt P04629, G595R); experiment: TRK kinase mutant inhibition (HTRF), TRKA-G595R; type: biochemical
T4 construct: purchased Carna Biosciences
T4 sequence (P04629 33-796 G595R): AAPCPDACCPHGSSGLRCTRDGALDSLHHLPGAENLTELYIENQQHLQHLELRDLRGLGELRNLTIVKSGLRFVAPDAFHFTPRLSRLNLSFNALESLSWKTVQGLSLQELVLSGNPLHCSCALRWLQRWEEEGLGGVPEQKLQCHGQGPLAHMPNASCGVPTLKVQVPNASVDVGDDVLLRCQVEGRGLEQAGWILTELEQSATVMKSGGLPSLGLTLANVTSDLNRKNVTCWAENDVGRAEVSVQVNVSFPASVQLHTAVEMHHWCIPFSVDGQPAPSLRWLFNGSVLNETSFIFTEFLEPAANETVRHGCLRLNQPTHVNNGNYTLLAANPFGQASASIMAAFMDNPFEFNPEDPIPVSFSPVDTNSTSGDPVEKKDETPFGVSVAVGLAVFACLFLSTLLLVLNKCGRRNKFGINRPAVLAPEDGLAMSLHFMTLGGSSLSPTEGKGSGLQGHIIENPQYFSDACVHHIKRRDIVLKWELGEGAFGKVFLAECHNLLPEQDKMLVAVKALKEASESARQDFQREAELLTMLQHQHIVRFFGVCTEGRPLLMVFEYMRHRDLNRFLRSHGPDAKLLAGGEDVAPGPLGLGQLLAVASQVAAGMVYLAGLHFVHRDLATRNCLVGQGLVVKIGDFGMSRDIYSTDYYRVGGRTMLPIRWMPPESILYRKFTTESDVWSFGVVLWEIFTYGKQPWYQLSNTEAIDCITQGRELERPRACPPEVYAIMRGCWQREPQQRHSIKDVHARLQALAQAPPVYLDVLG

TRKA-G667C = target: T5, TRKA-G667C (Homo sapiens, UniProt P04629, G667C); experiment: TRK kinase mutant inhibition (HTRF), TRKA-G667C; type: biochemical
T5 construct: purchased Carna Biosciences
T5 sequence (P04629 33-796 G667C): as the sequence (P04629 33-796 G595R) above, with R563G, G635C counted along it

TRKA-F589L = target: T6, TRKA-F589L (Homo sapiens, UniProt P04629, F589L); experiment: TRK kinase mutant inhibition (HTRF), TRKA-F589L; type: biochemical
T6 construct: purchased Carna Biosciences
T6 sequence (P04629 33-796 F589L): as the sequence (P04629 33-796 G595R) above, with F557L, R563G counted along it

TRKC-G623R = target: T7, TRKC-G623R (Homo sapiens, UniProt Q16288, G623R); experiment: TRK kinase mutant inhibition (HTRF), TRKC-G623R; type: biochemical
T7 construct: purchased Carna Biosciences
T7 sequence (Q16288 32-839 G623R): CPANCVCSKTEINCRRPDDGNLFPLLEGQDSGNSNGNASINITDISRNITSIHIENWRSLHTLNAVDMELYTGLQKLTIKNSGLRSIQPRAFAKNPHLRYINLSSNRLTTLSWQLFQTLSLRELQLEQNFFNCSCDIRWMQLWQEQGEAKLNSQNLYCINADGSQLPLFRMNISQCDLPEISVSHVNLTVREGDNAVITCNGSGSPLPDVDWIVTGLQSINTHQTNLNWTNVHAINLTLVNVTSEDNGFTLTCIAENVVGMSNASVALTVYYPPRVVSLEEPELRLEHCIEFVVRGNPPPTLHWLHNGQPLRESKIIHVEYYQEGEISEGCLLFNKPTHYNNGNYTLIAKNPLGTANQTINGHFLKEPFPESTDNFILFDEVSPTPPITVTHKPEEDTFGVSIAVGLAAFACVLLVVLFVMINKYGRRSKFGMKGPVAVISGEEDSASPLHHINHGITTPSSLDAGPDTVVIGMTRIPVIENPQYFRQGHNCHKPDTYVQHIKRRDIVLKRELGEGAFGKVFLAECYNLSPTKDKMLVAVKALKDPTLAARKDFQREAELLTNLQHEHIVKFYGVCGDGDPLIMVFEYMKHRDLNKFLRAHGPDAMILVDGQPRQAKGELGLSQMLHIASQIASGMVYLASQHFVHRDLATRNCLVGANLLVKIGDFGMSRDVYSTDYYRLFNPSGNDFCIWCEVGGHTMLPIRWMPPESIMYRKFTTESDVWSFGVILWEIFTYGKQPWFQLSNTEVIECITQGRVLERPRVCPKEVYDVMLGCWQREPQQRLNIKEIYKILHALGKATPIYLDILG

TRKC-G696A = target: T8, TRKC-G696A (Homo sapiens, UniProt Q16288, G696A); experiment: TRK kinase mutant inhibition (HTRF), TRKC-G696A; type: biochemical
T8 construct: purchased Carna Biosciences
T8 sequence (Q16288 32-839 G696A): as the sequence (Q16288 32-839 G623R) above, with R592G, G665A counted along it

Human NSCLC H2228 [1] = experiment: Antitumor activity on nude mouse xenograft tumor model (Test Example 4); type: in vivo, nude mice (BALB/c)
Method: The efficacy of the compounds of the invention was evaluated by a standard murine model of the transplanted tumor. Human NSCLC H2228 was cultured, collected, and inoculated subcutaneously to 5-6 weeks old female nude mice (BALB/c, Shanghai Ling Chang Biotech, Ltd.). When the tumor volume reached 100-150 mm^3, the animals were randomly divided into a solvent control group ([…] in water) and a compound group (6 animals per group). Animals were subsequently gavaged with the compounds of the examples (corresponding dose, dissolved in […] in water), starting anywhere from 0 to 7 days after tumor cell inoculation, and were performed twice daily in the experiment.
The experimental index is to examine the influence of the compound of the embodiment on the growth of the tumor, and the specific index is […].
(§1) Tumor diameters were measured twice weekly with a vernier caliper and tumor volume (V) was calculated as:
(§2) V=½×a×b^2 wherein a and b represent length and width, respectively.
(§3) T/C(%)=(T−T0)/(C−C0)×100 where T, C is the tumor volume at the end of the experiment; T0, C0 are tumor volumes at the beginning of the experiment.
(§4) Partial tumor regression (PR) is defined if the tumor shrinks from the initial volume, i.e., T<T0 or C<C0; if the tumor completely disappears, it is defined as complete tumor regression (CR).
(§5) Comparison between the two groups of tumor volumes was tested using a two-tailed Student's t test, with P<0.05 defined as statistically significant differences.
BID below refers to twice daily dosing.

[2] = Drug metabolism study in rats, oral administration; settings: rat
[3] = Drug metabolism study in rats, intravenous administration; settings: rat
Human NSCLC H2228 [4] = experiment: Antitumor activity on nude mouse xenograft tumor model (Test Example 5); type: in vivo, nude mice (BALB/c); settings: for Partially regression: D14, tumors regressed/animals per group
Method: The efficacy of the compounds of the invention was assessed by a standard murine model of transplanted tumors. Human NSCLC H2228 was cultured, collected, and inoculated subcutaneously to 5-6 weeks old female nude mice (BALB/c, Shanghai Ling Chang Biotech, Ltd.). When the tumor volume reached 100-150 mm3, the animals were randomly divided into a solvent control group (70% PEG-400 in water) and a compound group (6 animals per group).
Animals were subsequently gavaged with the compounds of the examples (corresponding doses, dissolved in 70% PEG-400 in water), starting anywhere from 0 to 13 days after tumor cell inoculation, and were performed once or twice daily in the experiment.
The experimental index is to examine the influence of the compound of the embodiment on the growth of the tumor, and the specific index is T/C % or tumor inhibition rate TGI (%).
as §1, §2, §3
Tumor inhibition rate (TGI) (%) 100−T/C (%).
When tumor regression occurred, Tumor inhibition rate (TGI) (%) 100−(T−T0)/T0×100
as §4, §5
BID below indicates twice daily dosing and QD indicates once daily dosing.

[5] = 50 mg/kg BID D0-7, D14, tumors regressed/animals per group

T1 sequence (P04629 33-796): as the sequence (P04629 33-796 G595R) above, with R563G counted along it

Compound: C[C@@H](Nc1ccn2ncc(-c3cnn(CCO)c3)c2n1)c1cc(F)ccc1OCC(F)F [Compound 5, (R)-2-(4-(5-((1-(2-(2,2-difluoroethoxy)-5-fluorophenyl)ethyl)amino)pyrazolo [1,5-a]pyrimidin-3-yl)-1H-pyrazol-1-yl) ethanol]
IC50 (TRKA): 3600 pM | IC50 (TRKB): 3900 pM | IC50 (TRKC): 11100 pM | IC50 (TRKA-G595R): 880 pM | IC50 (TRKA-G667C): 950 pM | IC50 (TRKA-F589L): 290 pM | IC50 (TRKC-G623R): 610 pM | IC50 (TRKC-G696A): 1000 pM | Partially regression (Human NSCLC H2228 [1]; [5]): 2/6 | complete regression (Human NSCLC H2228 [1]; [5]): 3/6 | Tumor growth inhibition value D14 (Human NSCLC H2228 [1]; 50 mg/kg BID gavage D0-7, dosing stopped from D8, read at D14, 50 mg/kg): 155% | Tumor growth inhibition value D14 (Human NSCLC H2228 [1]; 50 mg/kg BID gavage D0-7, dosing stopped from D8, read at D14, listed as compound 5, 50 mg/kg): 155% | tumor completely regressed D7 (Human NSCLC H2228 [1]; 50 mg/kg BIDx8, D7, tumors regressed/animals per group): 4/6 | tumor inhibition rate D7 (Human NSCLC H2228 [1]; 50 mg/kg BIDx8, read at D7): 182% | bioavailability ([2]; in vivo, po, 5 mg/kg): 49.3% | CL ([2]; oral 5 mg/kg): 158 mL/min/kg | Cmax ([2]; oral 5 mg/kg): 217.7 ng/mL | T1/2 ([2]; oral 5 mg/kg): 5.7 h | Tmax ([2]; oral 5 mg/kg): 0.25 h | Vz ([2]; oral 5 mg/kg): 79.26 L/kg | AUC(0-t) ([2]; plasma, po, 5 mg/kg): 479 ng·h/mL | MRT last ([2]; plasma, po, 5 mg/kg): 3.6 h | Vd ([3]; in vivo, iv, 1 mg/kg): 40 L/kg | clearance ([3]; in vivo, iv, 1 mg/kg): 83.3 mL/min/kg | Cmax ([3]; intravenous injection 1 mg/kg): 104.1 ng/mL | T1/2 ([3]; intravenous injection 1 mg/kg): 5.7 h | AUC(0-t) ([3]; plasma, iv, 1 mg/kg): 194 ng·h/mL | MRT last ([3]; plasma, iv, 1 mg/kg): 3.89 h

IC50 (TRKA): 2800 pM | IC50 (TRKB): 3200 pM | IC50 (TRKC): 3900 pM | IC50 (TRKA-G595R): 750 pM | IC50 (TRKA-G667C): 760 pM | IC50 (TRKA-F589L): 440 pM | IC50 (TRKC-G623R): 730 pM | IC50 (TRKC-G696A): 1300 pM | CL ([2]; oral 5 mg/kg): 57.7 mL/min/kg | Vz ([2]; oral 5 mg/kg): 19.23 L/kg | AUC(0-t) ([2]; plasma, po, 5 mg/kg): 1460 ng·h/mL | Cmax ([2]; plasma, po, 5 mg/kg): 283 ng/mL | MRT last ([2]; plasma, po, 5 mg/kg): 4.27 h | Tmax ([2]; plasma, po, 5 mg/kg): 2 h | bioavailability ([2]; plasma, po, 5 mg/kg): 56.2% | half-life ([2]; plasma, po, 5 mg/kg): 4 h | AUC(0-t) ([3]; plasma, iv, 1 mg/kg): 518 ng·h/mL | Cmax ([3]; plasma, iv, 1 mg/kg): 174 ng/mL | MRT last ([3]; plasma, iv, 1 mg/kg): 4.2 h | Vd ([3]; plasma, iv, 1 mg/kg): 12.7 L/kg | clearance ([3]; plasma, iv, 1 mg/kg): 30.3 mL/min/kg | half-life ([3]; plasma, iv, 1 mg/kg): 4.95 h
Compound: C[C@@H](Nc1ccn2ncc(-c3cn[nH]c3)c2n1)c1cc(F)ccc1OCC(F)(F)F [Compound b8-30, (R)-N-(1-(5-fluoro-2-(2,2,2-trifluoroethoxy)phenyl)ethyl)-3-(1H-pyrazol-4-yl) pyrazolo [1,5-a] pyrimidin-5-amine]
Partially regression (Human NSCLC H2228 [4]; 25 mg/kg BID D0-13 (50 mg/kg from D8)): 6/6 | Tumor growth inhibition value/ D14 (Human NSCLC H2228 [4]; 25 mg/kg BID D0-13 (dose increased from D8 to 50 mg/kg), read at D14): 127% | Tumor growth inhibition value/ D14 (Human NSCLC H2228 [4]; 25 mg/kg BID D0-13 (dose increased from D8 to 50 mg/kg), read at D14, listed as compound b8-30): 127% | tumor inhibition rate D7 (Human NSCLC H2228 [4]; 25 mg/kg BID, read at D7): 95% | Partially regression (Human NSCLC H2228 [4]; 50 mg/kg QD D0-10 (100 mg/kg from D8)): 3/6 | Tumor growth inhibition value/ D14 (Human NSCLC H2228 [4]; 50 mg/kg QD D0-10 (dose raised from D8 to 100 mg/kg), read at D14): 110% | Tumor growth inhibition value/ D14 (Human NSCLC H2228 [4]; 50 mg/kg QD D0-10 (dose raised from D8 to 100 mg/kg), read at D14, listed as compound b8-30): 110% | tumor suppression D7 (Human NSCLC H2228 [4]; 50 mg/kg QD, read at D7): 96%
